In patent publication US20240209028A1, “CNP COMPOUNDS” (priority 2022, published 2024) one finds solubility data, which are given here for eight molecules.

A short description of this series: Solubility of CNP compounds at pH 4.0 and pH 6.5. Format: physicochemical. The essentials:
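Supernatant peptide concentration was quantified by CAD after overnight room-temperature equilibration of incompletely dissolved samples. Nominal loading was ≥4000-5000 nmol/mL. Media were pH 4.0 sodium acetate 5 mM/glycerol 250 mM, or pH 6.5 sodium phosphate 8 mM/glycerol 23 mg/mL reached by stepwise NaOH addition.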

The mark [1] stands for this setting: 8 mM sodium phosphate, 23 mg/mL glycerol, pH 6.5, room temperature, read-out: Solubility at pH 6.5.
Setting [2] is: 5 mM sodium acetate, 250 mM glycerol, pH 4.0, room temperature, read-out: Solubility at pH 4.0.

What is called solubility is the dissolved amount per volume that the medium holds.

Values after ≈ are worked out from the molar mass of the structure shown. Where two headings read alike, the source gives them in different places. Starred links: 1 amine or outer side, 2 acyl side, 3 side chain; linkers in the order of their positions; H or OH if unused. Positions of bridges follow the written chain, without caps; N, C: chain ends. Residues, ends and D or L forms follow the SMILES beside them. *: point of attachment. C18 diacid = O=C(O)CCCCCCCCCCCCCCCCC(=O)*; γGlu = O=C(O)[C@H](CCC(=O)[*:2])N[*:1]; AEEA = NCCOCCOCC(=O)O

`CC[C@H](C)[C@@H]1NC(=O)[C@H](CCCNC(=N)N)NC(=O)[C@H](CC(=O)O)NC(=O)[C@H](CC(C)C)NC(=O)[C@@H]2CCCN2C(=O)[C@H](CC(C)C)NC(=O)CNC(=O)[C@H](Cc2ccccc2)NC(=O)[C@@H](NC(=O)CNC(=O)[C@H](CCC(N)=O)NC(=O)[C@H](CO)NC(=O)[C@H](CO)NC(=O)CNC(=O)[C@H](CCCCN)NC(=O)[C@H](CCCCN)NC(=O)[C@H](CCC(N)=O)NC(=O)[C@H](C)NC(=O)CNC(=O)[C@@H]2CCCN2C(=O)[C@H](C)NC(=O)[C@H](CCC(N)=O)NC(=O)CNC(=O)[C@@H]2CCCN2C(=O)[C@H](C)NC(=O)[C@H](CCC(N)=O)NC(=O)CNC(=O)[C@@H]2CCCN2C(=O)[C@H](C)NC(=O)[C@H](CCC(N)=O)NC(=O)CNC(=O)COCCOCCNC(=O)COCCOCCNC(=O)CC[C@H](NC(=O)CCCCCCCCCCCCCCCCC(=O)O)C(=O)O)CSSC[C@@H](C(=O)O)NC(=O)CNC(=O)[C@H](CC(C)C)NC(=O)CNC(=O)[C@H](CO)NC(=O)[C@H](CC(C)C)NC(=O)[C@H](CO)NC(=O)CNC1=O` [compound 1457] ({C18 diacid-γGlu-AEEA-AEEA}-GQAPGQAPGQAPGAQKKGSSQGCFGLPLDRIGSLSGLGC-OH; disulfide 23-39): under setting [1], the solubility turned out to be 8.96 mM (≈ 39.5 mg/mL). With `CC[C@H](C)[C@@H]1NC(=O)[C@H](CCCNC(=N)N)NC(=O)[C@H](CC(=O)O)NC(=O)[C@H](CC(C)C)NC(=O)[C@@H]2CCCN2C(=O)[C@H](CC(C)C)NC(=O)CNC(=O)[C@H](Cc2ccccc2)NC(=O)[C@@H](NC(=O)CNC(=O)[C@H](CCCCN)NC(=O)[C@H](CO)NC(=O)[C@H](CC(C)C)NC(=O)CNC(=O)[C@H](CCCCN)NC(=O)[C@H](CCCCN)NC(=O)[C@H](CCC(N)=O)NC(=O)[C@H](C)NC(=O)CNC(=O)[C@H](CCCCN)NC(=O)[C@H](Cc2ccc(O)cc2)NC(=O)[C@H](CCCCN)NC(=O)[C@H](CCCNC(=N)N)NC(=O)[C@H](C)NC(=O)COCCOCCNC(=O)COCCOCCNC(=O)CC[C@H](NC(=O)CC[C@H](NC(=O)CC[C@H](NC(=O)CC[C@H](NC(=O)CC[C@H](NC(=O)CCCCCCCCCCCCCCCCC(=O)O)C(=O)O)C(=O)O)C(=O)O)C(=O)O)C(=O)O)CSSC[C@@H](C(=O)O)NC(=O)CNC(=O)[C@H](CC(C)C)NC(=O)CNC(=O)[C@H](CO)NC(=O)[C@H](CC(C)C)NC(=O)[C@H](CO)NC(=O)CNC1=O` [compound 1470] ({C18 diacid-γGlu-γGlu-γGlu-γGlu-γGlu-AEEA-AEEA}-ARKYKGAQKKGLSKGCFGLPLDRIGSLSGLGC-OH; disulfide 16-32), the solubility by setting is: under setting [2], 6.48 mM (≈ 29.4 mg/mL); under setting [1], 0.595 mM (≈ 2.7 mg/mL).

With `CC[C@H](C)[C@@H]1NC(=O)[C@H](CCCNC(=N)N)NC(=O)[C@H](CC(=O)O)NC(=O)[C@H](CC(C)C)NC(=O)[C@@H]2CCCN2C(=O)[C@H](CC(C)C)NC(=O)CNC(=O)[C@H](Cc2ccccc2)NC(=O)[C@@H](NC(=O)CNC(=O)[C@H](CO)NC(=O)[C@H](CO)NC(=O)[C@H](CC(C)C)NC(=O)CNC(=O)[C@H](CCCCN)NC(=O)[C@H](CCCCN)NC(=O)[C@H](CCC(N)=O)NC(=O)[C@H](C)NC(=O)CNC(=O)[C@H](CCCCN)NC(=O)[C@H](Cc2ccc(O)cc2)NC(=O)[C@H](CCCCN)NC(=O)[C@H](CCCNC(=N)N)NC(=O)[C@H](C)NC(=O)[C@H](CCC(N)=O)NC(=O)[C@@H]2CCCN2C(=O)[C@H](Cc2c[nH]cn2)NC(=O)[C@H](CCC(=O)O)NC(=O)[C@H](CCC(N)=O)NC(=O)COCCOCCNC(=O)COCCOCCNC(=O)CC[C@H](NC(=O)CC[C@H](NC(=O)CC[C@H](NC(=O)CC[C@H](NC(=O)CCCCCCCCCCCCCCCCC(=O)O)C(=O)O)C(=O)O)C(=O)O)C(=O)O)CSSC[C@@H](C(=O)O)NC(=O)CNC(=O)[C@H](CC(C)C)NC(=O)CNC(=O)[C@H](CO)NC(=O)[C@H](CC(C)C)NC(=O)[C@H](CO)NC(=O)CNC1=O` [compound 1473] ({C18 diacid-γGlu-γGlu-γGlu-γGlu-AEEA-AEEA}-QEHPQARKYKGAQKKGLSSGCFGLPLDRIGSLSGLGC-OH; disulfide 21-37; C-terminus assumed), the solubility was determined as 5.83 mM (≈ 29.1 mg/mL) under setting [2] and 1.76 mM (≈ 8.8 mg/mL) under setting [1]. Consider `CC[C@H](C)[C@@H]1NC(=O)[C@H](CCCNC(=N)N)NC(=O)[C@H](CC(=O)O)NC(=O)[C@H](CC(C)C)NC(=O)[C@@H]2CCCN2C(=O)[C@H](CC(C)C)NC(=O)CNC(=O)[C@H](Cc2ccccc2)NC(=O)[C@@H](NC(=O)CNC(=O)[C@H](CCCCN)NC(=O)[C@H](CO)NC(=O)[C@H](CC(C)C)NC(=O)CNC(=O)[C@H](CCCCN)NC(=O)[C@H](CCCCN)NC(=O)[C@H](CCC(N)=O)NC(=O)[C@H](C)NC(=O)CNC(=O)[C@H](CCCCN)NC(=O)[C@H](Cc2ccc(O)cc2)NC(=O)[C@H](CCCCN)NC(=O)[C@H](CCCNC(=N)N)NC(=O)[C@H](C)NC(=O)[C@H](CCC(N)=O)NC(=O)[C@@H]2CCCN2C(=O)[C@H](Cc2c[nH]cn2)NC(=O)[C@H](CCC(=O)O)NC(=O)[C@H](CCC(N)=O)NC(=O)COCCOCCNC(=O)COCCOCCNC(=O)CC[C@H](NC(=O)CC[C@H](NC(=O)CC[C@H](NC(=O)CC[C@H](NC(=O)CC[C@H](NC(=O)CCCCCCCCCCCCCCCCC(=O)O)C(=O)O)C(=O)O)C(=O)O)C(=O)O)C(=O)O)CSSC[C@@H](C(=O)O)NC(=O)CNC(=O)[C@H](CC(C)C)NC(=O)CNC(=O)[C@H](CO)NC(=O)[C@H](CC(C)C)NC(=O)[C@H](CO)NC(=O)CNC1=O` [compound 1474] ({C18 diacid-γGlu-γGlu-γGlu-γGlu-γGlu-AEEA-AEEA}-QEHPQARKYKGAQKKGLSKGCFGLPLDRIGSLSGLGC-OH; disulfide 21-37; C-terminus assumed), for which the solubility reads like this: under setting [2], 6.38 mM (≈ 32.9 mg/mL); under setting [1], 0.969 mM (≈ 5 mg/mL).

Consider `CC[C@H](C)[C@@H]1NC(=O)[C@H](CCCNC(=N)N)NC(=O)[C@H](CCC(=O)O)NC(=O)[C@H](CC(C)C)NC(=O)[C@@H]2CCCN2C(=O)[C@H](CC(C)C)NC(=O)CNC(=O)[C@H](Cc2ccccc2)NC(=O)[C@@H](NC(=O)CNC(=O)[C@H](CCC(N)=O)NC(=O)[C@H](CO)NC(=O)[C@H](CC(C)C)NC(=O)CNC(=O)[C@H](CCCCN)NC(=O)[C@H](CCCCN)NC(=O)[C@H](CCC(N)=O)NC(=O)[C@H](C)NC(=O)CNC(=O)[C@H](CCCCN)NC(=O)[C@H](Cc2ccc(O)cc2)NC(=O)[C@H](CCCCN)NC(=O)[C@H](CCCNC(=N)N)NC(=O)[C@H](C)NC(=O)COCCOCCNC(=O)COCCOCCNC(=O)COCCOCCNC(=O)COCCOCCNC(=O)CC[C@H](NC(=O)CC[C@H](NC(=O)CC[C@H](NC(=O)CC[C@H](NC(=O)CC[C@H](NC(=O)CCCCCCCCCCCCCCCCC(=O)O)C(=O)O)C(=O)O)C(=O)O)C(=O)O)C(=O)O)CSSC[C@@H](C(=O)O)NC(=O)CNC(=O)[C@H](CC(C)C)NC(=O)CNC(=O)[C@H](CO)NC(=O)[C@H](CC(C)C)NC(=O)[C@H](CO)NC(=O)CNC1=O` [compound 1477] ({C18 diacid-γGlu-γGlu-γGlu-γGlu-γGlu-AEEA-AEEA-AEEA-AEEA}-ARKYKGAQKKGLSQGCFGLPLERIGSLSGLGC-OH; disulfide 16-32), for which the concentration in solution (pH 6.5) (solubility) was 5.35 mM (≈ 25.9 mg/mL). For `CC[C@H](C)[C@@H]1NC(=O)[C@H](CCCNC(=N)N)NC(=O)[C@H](CC(=O)O)NC(=O)[C@H](CC(C)C)NC(=O)[C@@H]2CCCN2C(=O)[C@H](CC(C)C)NC(=O)CNC(=O)[C@H](Cc2ccccc2)NC(=O)[C@@H](NC(=O)CNC(=O)[C@H](CCC(N)=O)NC(=O)[C@H](CO)NC(=O)[C@H](CC(C)C)NC(=O)CNC(=O)[C@H](CCCCN)NC(=O)[C@H](CCCCN)NC(=O)[C@H](CCC(N)=O)NC(=O)[C@H](C)NC(=O)CNC(=O)[C@H](CCCCN)NC(=O)[C@H](Cc2ccc(O)cc2)NC(=O)COCCOCCNC(=O)COCCOCCNC(=O)COCCOCCNC(=O)COCCOCCNC(=O)CC[C@H](NC(=O)CC[C@H](NC(=O)CCCCCCCCCCCCCCCCC(=O)O)C(=O)O)C(=O)O)CSSC[C@@H](C(=O)O)NC(=O)CNC(=O)[C@H](CC(C)C)NC(=O)CNC(=O)[C@H](CO)NC(=O)[C@H](CC(C)C)NC(=O)[C@H](CO)NC(=O)CNC1=O` [compound 1478] ({C18 diacid-γGlu-γGlu-AEEA-AEEA-AEEA-AEEA}-YKGAQKKGLSQGCFGLPLDRIGSLSGLGC-OH; disulfide 13-29; C-terminus assumed), the solubility is, setting by setting: under setting [2], 6.51 mM (≈ 26.6 mg/mL); under setting [1], 2.18 mM (≈ 8.9 mg/mL). With `CC[C@H](C)[C@@H]1NC(=O)[C@H](CCCNC(=N)N)NC(=O)[C@H](CC(=O)O)NC(=O)[C@H](CC(C)C)NC(=O)[C@@H]2CCCN2C(=O)[C@H](CC(C)C)NC(=O)CNC(=O)[C@H](Cc2ccccc2)NC(=O)[C@@H](NC(=O)CNC(=O)[C@H](CCC(N)=O)NC(=O)[C@H](CO)NC(=O)[C@H](CC(C)C)NC(=O)CNC(=O)[C@H](CCCCN)NC(=O)[C@H](CCCCN)NC(=O)[C@H](CCC(N)=O)NC(=O)[C@H](C)NC(=O)CNC(=O)[C@@H]2CCCN2C(=O)[C@H](C)NC(=O)[C@H](CCC(N)=O)NC(=O)CNC(=O)COCCOCCNC(=O)COCCOCCNC(=O)CC[C@H](NC(=O)CCCCCCCCCCCCCCCCC(=O)O)C(=O)O)CSSC[C@@H](C(=O)O)NC(=O)CNC(=O)[C@H](CC(C)C)NC(=O)CNC(=O)[C@H](CO)NC(=O)[C@H](CC(C)C)NC(=O)[C@H](CO)NC(=O)CNC1=O` [compound 1484] ({C18 diacid-γGlu-AEEA-AEEA}-GQAPGAQKKGLSQGCFGLPLDRIGSLSGLGC-OH; disulfide 15-31; C-terminus assumed), the solubility under setting [1] worked out at 2.33 mM (≈ 8.7 mg/mL). As for `CC[C@H](C)[C@@H]1NC(=O)[C@H](CCCNC(=N)N)NC(=O)[C@H](CCC(=O)O)NC(=O)[C@H](CC(C)C)NC(=O)[C@@H]2CCCN2C(=O)[C@H](CC(C)C)NC(=O)CNC(=O)[C@H](Cc2ccccc2)NC(=O)[C@@H](NC(=O)CNC(=O)[C@H](CCC(N)=O)NC(=O)[C@H](CO)NC(=O)CNC(=O)CNC(=O)[C@H](CCCCN)NC(=O)[C@H](CCCCN)NC(=O)[C@H](CCC(N)=O)NC(=O)[C@H](C)NC(=O)CNC(=O)[C@H](CCCCN)NC(=O)[C@H](Cc2ccc(O)cc2)NC(=O)COCCOCCNC(=O)COCCOCCNC(=O)COCCOCCNC(=O)COCCOCCNC(=O)CC[C@H](NC(=O)CC[C@H](NC(=O)CCCCCCCCCCCCCCCCC(=O)O)C(=O)O)C(=O)O)CSSC[C@@H](C(=O)O)NC(=O)CNC(=O)[C@H](CC(C)C)NC(=O)CNC(=O)[C@H](CO)NC(=O)[C@H](CC(C)C)NC(=O)[C@H](CO)NC(=O)CNC1=O` [compound 1489] ({C18 diacid-γGlu-γGlu-AEEA-AEEA-AEEA-AEEA}-YKGAQKKGGSQGCFGLPLERIGSLSGLGC-OH; disulfide 13-29), the concentration in solution (pH 4) (solubility) was 5.93 mM (≈ 24 mg/mL).
